Experimental data as given in patent publication US11286247B2, “Acryloyl-containing nuclear transport regulators and uses thereof” (WIGEN BIOMEDICINE TECHNOLOGY (SHANGHAI) CO., LTD., priority 2019, dated 2022).

Tests used:
[1] = In vivo pharmacokinetic analysis; conditions: ICR, mouse; mice, 5 mg/kg, oral gavage in 0.5% CMC, plasma
Experimental: A group of 9 ICR mice received 5 mg/kg of compound in 0.5% CMC by oral gavage. Blood was taken before treatment and at 5 min, 30 min, 1, 2, 4, 8, 12 and 24 h after treatment. 80 μL of whole blood was sampled (n=3 at each time point) via retro-orbital bleeds or cardiac puncture. The blood sample was collected into EDTA tubes and plasma were obtained by centrifugation at 1500-1600 rpm for 10 min at 4° C. After centrifugation, plasma sample was transferred to a new tube and stored at −60 to −90° C. for future analysis. Plasma concentration of (compounds was quantified by a method based on liquid chromatography coupled to tandem mass-spectrometric detections (LC/MS/MS). Noncompartmental pharmacokinetics parameters were calculated.

[2] = tested on: BxPC-3 cells (pancreatic cancer); assay: Cancer cell proliferation assay, BxPC-3; assay type: cell-based; conditions: Homo sapiens, BXPC-3, 72 h; three days incubation, absorbance 570 nm; read-out: IC50 (μM) BxPC-3
Experimental: (§1) BxPC-3 cells (pancreatic cancer) and MDA-MB-231 cells (breast cancer cells) were harvested from exponential phase cultures and seeded in 96-well plates at a cell density of 2×10^4 per well. After overnight attachment, compounds including positive controls were applied to cells at five concentrations and incubated for three days. During the last four hours of incubation, 20 μL of 5 mg/mL […] was added followed by the further addition of 100 μL DMSO. The plates were subsequently shook for 10 minutes to dissolve insoluble purple formazan. Absorbance (A) at a wavelength of 570 nm was quantified. Percentage of inhibition was used for the calculation of IC50 based on the bliss method.

[3] = tested on: MDA-MB-231 cells (breast cancer cells); assay: Cancer cell proliferation assay, MDA-MB-231; assay type: cell-based; conditions: Homo sapiens, MDA-MB-231, 72 h; three days incubation, absorbance 570 nm; read-out: IC50 (μM) MDA-MB-231
Experimental: as §1

CRM1 = molecular target: T1, CRM1 (Homo sapiens, UniProt O14980); assay: Rev-GFP nuclear export assay; assay type: cell-based; conditions: U2OS cells expressing Rev-GFP, 1 hour incubation, nuclear retention of Rev-GFP
T1 construct: The nuclear localization of Rev protein depends on CRM1; endogenous in cells; host or cells: U2OS cells stably or transiently expressing Rev-GFP (reporter cargo)
T1 sequence (O14980 whole entry): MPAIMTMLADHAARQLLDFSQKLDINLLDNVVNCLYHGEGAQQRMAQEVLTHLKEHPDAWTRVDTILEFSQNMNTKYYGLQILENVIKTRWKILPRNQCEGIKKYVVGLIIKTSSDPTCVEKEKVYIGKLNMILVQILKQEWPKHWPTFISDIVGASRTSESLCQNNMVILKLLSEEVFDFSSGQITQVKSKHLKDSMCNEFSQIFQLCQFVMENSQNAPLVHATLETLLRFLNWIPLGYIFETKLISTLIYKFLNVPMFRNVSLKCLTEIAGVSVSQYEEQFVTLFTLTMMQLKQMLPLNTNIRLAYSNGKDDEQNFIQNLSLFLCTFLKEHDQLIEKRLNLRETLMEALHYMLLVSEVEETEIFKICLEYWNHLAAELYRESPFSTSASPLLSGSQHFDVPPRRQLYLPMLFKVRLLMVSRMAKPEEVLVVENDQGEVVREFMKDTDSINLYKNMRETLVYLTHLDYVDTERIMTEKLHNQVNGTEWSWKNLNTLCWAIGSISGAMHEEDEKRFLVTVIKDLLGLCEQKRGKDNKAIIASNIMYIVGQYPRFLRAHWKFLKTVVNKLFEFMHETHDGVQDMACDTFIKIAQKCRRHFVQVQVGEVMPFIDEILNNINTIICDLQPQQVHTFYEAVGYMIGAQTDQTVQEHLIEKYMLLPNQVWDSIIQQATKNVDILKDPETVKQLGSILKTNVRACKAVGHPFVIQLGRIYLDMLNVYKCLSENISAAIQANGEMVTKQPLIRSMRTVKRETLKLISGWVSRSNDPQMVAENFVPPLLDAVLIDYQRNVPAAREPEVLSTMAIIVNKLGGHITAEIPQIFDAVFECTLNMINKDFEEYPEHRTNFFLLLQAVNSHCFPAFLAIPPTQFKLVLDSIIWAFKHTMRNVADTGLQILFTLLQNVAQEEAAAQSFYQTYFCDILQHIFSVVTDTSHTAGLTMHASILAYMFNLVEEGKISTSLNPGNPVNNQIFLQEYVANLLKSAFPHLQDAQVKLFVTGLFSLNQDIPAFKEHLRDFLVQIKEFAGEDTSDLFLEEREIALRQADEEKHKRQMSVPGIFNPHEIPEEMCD
Experimental: The Rev protein from HIV contains nuclear export sequence (NES) at its C terminus and nuclear localization sequence (NLS) at its N-terminus. The nuclear localization of Rev protein depends on CRM1. U2OS cells expressing Rev protein fused with GFP (Rev-GFP) were plated in black 384 plates with clear bottom one day prior to treatment. Compounds were serially diluted 2-fold from 40 μM with DMEM in 384 plates, and then incubated with U2OS cells for an hour. Cells were fixed with 3.7% formaldehyde afterwards and nuclei were stained with Hoechst33258. The nuclear retention of Rev-GFP was examined, and IC50 was calculated.

Structure (SMILES) | AUC(0-t) [1] [ng·h/mL] | Cmax [1] [ng/mL] | MRT [1] [h] | Tmax [1] [h] | half-life [1] [h] | IC50 [2] [µM] | IC50 [3] [µM] | IC50 (CRM1) [nM]
O=C(/C=C\n1cnc(-c2cc(C(F)(F)F)cc(C(F)(F)F)c2)n1)NN1CCCCC1=O [Compound 3, (Z)-3-(3-(3,5-bis(trifluoromethyl)phenyl)-1H-1,2,4-triazol-1-yl)-N-(2-oxopiperidin-1-yl)acrylamide] | 5810 | 499 | 7.86 | 1 | 3.31 |  |  | 
O=C(/C=C\n1cnc(-c2cc(C(F)(F)F)cc(C(F)(F)F)c2)n1)NN1CCCCCC1=O [Compound 4, (Z)-3-(3-(3,5-bis(trifluoromethyl)phenyl)-1H-1,2,4-triazol-1-yl)-N-(2-oxoazepan-1-yl)acrylamide] |  |  |  |  |  | 0.238 | 0.034 | < 1000
CC1=C(C)C(=O)N(NC(=O)/C=C\n2cnc(-c3cc(C(F)(F)F)cc(C(F)(F)F)c3)n2)C1 [Compound 5, (Z)-3-(3-(3,5-bis(trifluoromethyl)phenyl)-1H-1,2,4-triazol-1-yl)-N-(3,4-dimethyl-2-oxo-2,5-dihydro-1H-pyrrol-1-yl)acrylamide] | 3690 | 674 | 4.34 | 1 | 4.53 | 0.202 | 0.955 | < 1000
CCC1=C(C)CN(NC(=O)/C=C\n2cnc(-c3cc(C(F)(F)F)cc(C(F)(F)F)c3)n2)C1=O [Compound 6, (Z)-3-(3-(3,5-bis(trifluoromethyl)phenyl)-1H-1,2,4-triazol-1-yl)-N-(3-ethyl-4-methyl-2-oxo-2,5-dihydro-1H-pyrrol-1-yl)acrylamide] |  |  |  |  |  | 0.471 | 0.487 | < 1000
CC1CCN(NC(=O)/C=C\n2cnc(-c3cc(C(F)(F)F)cc(C(F)(F)F)c3)n2)C1=O (centres unmarked) [Compound 9, (Z)-3-(3-(3,5-bis(trifluoromethyl)phenyl)-1H-1,2,4-triazol-1-yl)-N-(3-methyl-2-oxopyrrolidin-1-yl)acrylamide] |  |  |  |  |  | 0.334 | 0.504 | < 1000
O=C(/C=C\n1cnc(-c2cc(C(F)(F)F)cc(C(F)(F)F)c2)n1)NN1CC[C@H](O)C1=O [Compound 10, (S,Z)-3-(3-(3,5-bis(trifluoromethyl)phenyl)-1H-1,2,4-triazol-1-yl)-N-(3-hydroxy-2-oxopyrrolidin-1-yl)acrylamide] |  |  |  |  |  | 0.527 | 0.519 | 1000 to 10000
O=C(/C=C\n1cnc(-c2cc(C(F)(F)F)cc(C(F)(F)F)c2)n1)NN1CC(O)CC1=O (centres unmarked) [Compound 15, (Z)-3-(3-(3,5-bis(trifluoromethyl)phenyl)-1H-1,2,4-triazol-1-yl)-N-(4-hydroxy-2-oxopyrrolidin-1-yl)acrylamide] |  |  |  |  |  | 0.352 | 1.23 | 
O=C(/C=C\n1cnc(-c2cc(C(F)(F)F)cc(C(F)(F)F)c2)n1)NN1CCC2(CC2)C1=O [Compound 18, (Z)-3-(3-(3,5-bis(trifluoromethyl)phenyl)-1H-1,2,4-triazol-1-yl)-N-(4-oxo-5-azaspiro[2.4]heptan-5-yl)acrylamide] | 3100 | 320 | 6.17 | 0.5 | 3.12 |  |  | 
O=C(/C=C\n1cnc(-c2cc(C(F)(F)F)cc(C(F)(F)F)c2)n1)NN1CC2CCCCC2C1=O (centres unmarked) [Compound 28, (Z)-3-(3-(3,5-bis(trifluoromethyl)phenyl)-1H-1,2,4-triazol-1-yl)-N-(1-oxooctahydro-2H-isoindol-2-yl)acrylamide] |  |  |  |  |  | 0.769 | 0.24 | 1000 to 10000
O=C(/C=C\n1cnc(-c2cc(C(F)(F)F)cc(C(F)(F)F)c2)n1)NN1C(=O)[C@H]2C=C[C@@H]1C2 [Compound 30, (Z)-3-(3-(3,5-bis(trifluoromethyl)phenyl)-1H-1,2,4-triazol-1-yl)-N-((1S,4R)-3-oxo-2-azabicyclo[2.2.1]hept-5-en-2-yl)acrylamide] |  |  |  |  |  | 0.392 | 0.515 | < 1000
O=C(/C=C\n1cnc(-c2cc(C(F)(F)F)cc(C(F)(F)F)c2)n1)NN1C(=O)[C@H]2CC[C@@H]1C2 [Compound 32, (Z)-3-(3-(3,5-bis(trifluoromethyl)phenyl)-1H-1,2,4-triazol-1-yl)-N-((1R,4S)-3-oxo-2-azabicyclo[2.2.1]heptan-2-yl)acrylamide] |  |  |  |  |  | 0.134 | 0.277 | < 1000
O=C(/C=C\n1cnc(-c2cc(C(F)(F)F)cc(C(F)(F)F)c2)n1)Nn1ccccc1=O [Compound 56, (Z)-3-(3-(3,5-bis(trifluoromethyl)phenyl)-1H-1,2,4-triazol-1-yl)-N-(2-oxopyridin-1(2H)-yl)acrylamide] |  |  |  |  |  | 0.449 | 0.382 | < 1000
CC(C)N1C(=O)CCN1C(=O)/C=C\n1cnc(-c2cc(C(F)(F)F)cc(C(F)(F)F)c2)n1 [Compound 65, (Z)-1-(3-(3-(3,5-bis(trifluoromethyl)phenyl)-1H-1,2,4-triazol-1-yl)acryloyl)-2-isopropylpyrazolidin-3-one] |  |  |  |  |  | 0.168 | 0.055 | < 1000
O=C(/C=C\n1cnc(-c2cc(C(F)(F)F)cc(C(F)(F)F)c2)n1)N1CCC(=O)N1Cc1ccccc1 [Compound 67, (Z)-2-benzyl-1-(3-(3-(3,5-bis(trifluoromethyl)phenyl)-1H-1,2,4-triazol-1-yl)acryloyl)pyrazolidin-3-one] |  |  |  |  |  | 0.483 | 0.965 | < 1000
CCOC1=CC(=O)N(NC(=O)/C=C\n2cnc(-c3cc(C(F)(F)F)cc(C(F)(F)F)c3)n2)C1 [Compound 80, (Z)-3-(3-(3,5-bis(trifluoromethyl)phenyl)-1H-1,2,4-triazol-1-yl)-N-(4-ethoxy-2-oxo-2,5-dihydro-1H-pyrrol-1-yl)acrylamide] |  |  |  |  |  | 0.145 | 0.266 | < 1000
[2H]C([2H])([2H])OC1=CC(=O)N(NC(=O)/C=C\n2cnc(-c3cc(C(F)(F)F)cc(C(F)(F)F)c3)n2)C1 [Compound 82, (Z)-3-(3-(3,5-bis(trifluoromethyl)phenyl)-1H-1,2,4-triazol-1-yl)-N-(4-(methoxy-d3)-2-oxo-2,5-dihydro-1H-pyrrol-1-yl)acrylamide] |  |  |  |  |  | 0.016 | 0.102 | < 1000
O=C(/C=C\n1cnc(-c2cc(C(F)(F)F)cc(C(F)(F)F)c2)n1)NN1CC(OCC(F)(F)F)=CC1=O [Compound 83, (Z)-3-(3-(3,5-bis(trifluoromethyl)phenyl)-1H-1,2,4-triazol-1-yl)-N-(2-oxo-4-(2,2,2-trifluoroethoxy)-2,5-dihydro-1H-pyrrol-1-yl)acrylamide] |  |  |  |  |  | 0.344 | 0.214 | < 1000
O=C(/C=C\n1cnc(-c2cc(C(F)(F)F)cc(C(F)(F)F)c2)n1)NN1CCC=CC1=O [Compound 88, (Z)-3-(3-(3,5-bis(trifluoromethyl)phenyl)-1H-1,2,4-triazol-1-yl)-N-(6-oxo-3,6-dihydropyridin-1(2H)-yl)acrylamide] |  |  |  |  |  | 0.259 | 0.41 | < 1000
CC1=CC(=O)N(NC(=O)/C=C\n2cnc(-c3cc(C(F)(F)F)cc(C(F)(F)F)c3)n2)CC1 [Compound 89, (Z)-3-(3-(3,5-bis(trifluoromethyl)phenyl)-1H-1,2,4-triazol-1-yl)-N-(4-methyl-6-oxo-3,6-dihydropyridin-1(2H)-yl)acrylamide] |  |  |  |  |  | 0.184 | 0.277 | < 1000
O=C(/C=C\n1cnc(-c2cc(C(F)(F)F)cc(C(F)(F)F)c2)n1)N1CCCN1c1cnccn1 [Compound 96, (Z)-3-(3-(3,5-bis(trifluoromethyl)phenyl)-1H-1,2,4-triazol-1-yl)-1-(2-(pyrazin-2-yl)pyrazolidin-1-yl)prop-2-en-1-one] |  |  |  |  |  | 0.334 | 0.675 | < 1000
O=C(/C=C\n1cnc(-c2cc(C(F)(F)F)cc(C(F)(F)F)c2)n1)N1CCCN1C(=O)C1CC1 [Compound 98, (Z)-3-(3-(3,5-bis(trifluoromethyl)phenyl)-1H-1,2,4-triazol-1-yl)-1-(2-(cyclopropanecarbonyl)pyrazolidin-1-yl)prop-2-en-1-one] |  |  |  |  |  | 0.302 | 0.487 | < 1000
